Source: US8252807B2, “Methods of inhibiting the interaction between S100 and the receptor for advanced glycation end-products” (Board of Regents, The University of Texas System, priority 2007, dated 2012)
Values joined by “and” are separate entries in the source; they are usually repeats but may differ in a detail not shown here. Identical values can stand only once.

Columns and labels:
BxPC-3 orthotopic tumors = experiment: Tumor growth and metastasis in scid mice, BxPC-3 orthotopic; assay type: in vivo; conditions: for lung metastasis, mean: control mean=5.5×10^8; for tumor burden (primary tumor volume by bioluminescence), mean: end of six weeks, cromolyn 5 mg per kg daily i.p., gemcitabine 125 mg per kg bi-weekly i.p., control mean=1.6×10^9
Procedure: BxPC-3 cells stably expressing the firefly luciferase gene were injected orthotopically into 4 week old male CB 17 scid mice. […] Mice were divided into four groups of five mice each with an equivalent mean tumor size between groups. […] One group was treated with water (control), one group received gemcitabine bi-weekly (125 mg kg body weight bi-weekly by intraperitoneal injection), one group was administered cromolyn daily (5 mg per kg body weight daily by intraperitoneal injection), and the final group was given the combination of daily cromolyn and bi-weekly gemcitabine. All groups were treated for six weeks. Bioluminescent imaging was done weekly to assess tumor growth. […] Means and 95% confidence intervals are shown. (n=20). Two-tailed two-sample (unpaired) Student's t-tests were used to determine P values. The anti-tumorigenic capability of the drug cromolyn was assessed in 4-week-old male CB 17 scid mice (n=20) carrying orthopic tumors of BxPC-3, MPanc96, and Panc-1 cells stably expressing a Lenti-luc reporter. All mouse experiments were reviewed and approved by the Institutional Animal Care and Use Committee of UT MD Anderson Cancer Center. All mice were maintained in a sterile environment. Cages, bedding, food, and water were all autoclaved. All mice were maintained on a daily 12-hour light/12-hour dark cycle, according to the institutional animal welfare guidelines. BxPC-3, MPanc96, and Panc-1 cells carrying the Lenti-luc reporter gene were grown to 80% confluence, harvested by incubation with trypsin-EDTA, washed twice in PBS, and resuspended to a final concentration of 4.0×10^6 cells/mL. Each mouse (n=20 mice per cell line) was injected (into the pancreas) with cell suspensions (50 μL). […] This initial tumor volume was used to divide the mice into four groups of five mice each, such that the mean tumor size was equal between groups (FIGS. 4A, 5A, and 6A). To allow enough time to observe differences among treatment groups, the mice were followed for the next 5 weeks. One group of mice was then treated biweekly with a sub-maximal concentration of gemcitabine (125 mg per kg body weight by i.p. injection). A second group was treated with a daily injection of cromolyn (5 mg per kg body weight by i.p. injection). A third group was treated with both bi-weekly gemcitabine and daily cromolyn. The control group was treated daily with vehicle. Treatments were continued for 5 weeks, and the effects on the tumor burden and metastasis were analyzed by weekly bioluminescence imaging (FIGS. 4B, 5B, and 6B). At the end of the experiment the mice were anesthetized with 1.5% isofluorane/air mixture and killed by cervical dislocation. […] Before imaging, mice were placed in an acrylic chamber, anesthetized with 1.5% isofluorane/air mixture, and injected i.p. with 15 mg/mL of luciferin potassium salt in PBS at a dose of 150 mg per kg body weight. A digital grey scale image of each mouse was acquired, followed by acquisition and overlay of a pseudocolor image representing the spatial distribution of detected photons emerging from active luciferase within the mouse. Tumor volume was quantified as the sum of all detected photons within the region of the tumor per second. At the end of experiment, the mice were killed, and tumors were surgically removed and weighed. After the primary tumors were removed, cancer cell dissemination and metastasis was visualized using IVIS imaging, and metastatic colonies were counted. Subsequently, tissues were fixed with formaldehyde, and histology was used to verify the accuracy of the bioluminescence data.

Panc-1 cells = experiment: Panc-1 cell growth (MTS); assay type: cell-based
Procedure: Panc-1 pancreatic adenocarcinoma cells (1.0×10^3 cells/well) were cultured in the presence or absence of S100P (100 nM) and with or without cromolyn (100 μM), and cell proliferation was analyzed at 24, 48, and 72 hours. Means and 95% confidence intervals of three independent experiments performed in triplicate are shown. *, P=0.001, S100P alone versus S100P+cromolyn.
Panc-1 cells were plated at 1.0×10^3 cells/well and treated with platelet-derived growth factor (10 ng/mL) with or without cromolyn (100 μM), and cell proliferation was analyzed after 48 hours. Means and 95% confidence intervals of three independent experiments performed in triplicate are shown. *, P=0.004 PDGF and P=0.022 cromolyn+PDGF versus control.
Growth of Panc-1 and BxPC3 pancreatic adenocarcinoma cells was analyzed using MTS reagent (Promega, Madison, Wis.) according to the manufacturer's directions. Purified S100P (100 nM final concentration) with or without cromolyn (100 μM final concentration) was added to Panc-1 cells. Only cromolyn (0-100 μM) was added to BxPC-3 cells, which express endogenous S100P. For both cell models, 1.0×10^3 cells/well were plated in 96-well culture dishes. Cells were treated with S100P, PDGF, or cromolyn, or a combination, followed immediately by treatment with either S100P or PDGF. MTS (20 μL per well) was added to cells at various times, and the mixture was incubated for 1 hour at 37° C. Samples were then read at 490 nm (as O.D. units) on a uQuant-Microplate Spectrophotometer (Bio-Tek Services Inc., Richmond, Va.). The assay was performed three times in triplicate.

BxPC-3 cells = experiment: Flow cytometry to measure apoptosis in BxPC-3 cells; assay type: cell-based; conditions: 48 hours
Procedure: BxPC-3 cells were treated with cromolyn (10 μM) with (+) or without (−) gemcitabine (10 μM), and apoptosis was analyzed after 48 hours by flow cytometry. *, P<0.001 versus control, #, P=0.001 versus gemcitabine. Means and 95% confidence intervals of three independent experiments performed in triplicate are shown. Two-tailed two-sample (unpaired) Student's t-tests were used to determine P values. Standard propidium iodide (PI) staining by the hypotonic lysis method was used for apoptosis studies. Apoptosis was induced in 1.0×10^6 BxPC-3 cells by treatment with gemcitabine (10 μM), with or without cromolyn. After 48 hours the cells were detached from culture dishes by incubation in 0.05% trypsin-EDTA, washed once with cold PBS, and then incubated for 30 minutes in 500 μL of hypotonic solution (0.1% sodium citrate, 0.1% Triton X-100, 100 μg/mL RNAse, and 50 μg/mL PI), and analyzed by flow cytometry (EPICS XL, Beckman Coulter Inc, Fullerton, Calif.). Cells undergoing apoptosis that had lost part of their DNA were identified as the population of cells with sub-G1 DNA content. These assays were performed three times.

SMILES	lung metastasis, difference versus control (BxPC-3 orthotopic tumors; BxPC-3)	tumor burden, difference versus control (BxPC-3 orthotopic tumors; BxPC-3)	lung metastasis, mean (BxPC-3 orthotopic tumors; BxPC-3)	tumor burden (primary tumor volume by bioluminescence), mean (BxPC-3 orthotopic tumors; BxPC-3)	effect on body weight (BxPC-3 orthotopic tumors; BxPC-3 model, up to 6 weeks)	serum stimulated Panc-1 cell proliferation (Panc-1 cells)	PDGF-stimulated Panc-1 growth in presence of cromolyn (Panc-1 cells; PDGF 10 ng/mL, cromolyn 100 μM, 48 hours)	Panc-1 cell proliferation, mean (Panc-1 cells; S100P 100 nM + cromolyn 100 μM) [MTS units]	Panc-1 cell proliferation, difference S100P versus S100P+cromolyn (Panc-1 cells; S100P 100 nM, cromolyn 100 μM) [MTS units]	effects of exogenous S100P treatment on Panc-1 proliferation (Panc-1 cells; S100P 100 nM, cromolyn 100 μM)	Panc-1 cell proliferation, cromolyn treatment alone (Panc-1 cells; no S100P)	effect on BxPC-3 cell apoptosis, cromolyn alone (BxPC-3 cells; cromolyn 10 μM)	effect on liver metastasis (BxPC-3 orthotopic tumors; BxPC-3, versus control)	effect on lung metastasis (BxPC-3 orthotopic tumors; BxPC-3, versus control)	body weight, difference versus control (BxPC-3 orthotopic tumors; BxPC-3 model) [g]	body weight at the end of the experiment, mean (BxPC-3 orthotopic tumors; BxPC-3 model, control mean=31.1) [g]	apoptotic BxPC-3 cells, mean (BxPC-3 cells; gemcitabine 10 μM, cromolyn 10 μM, control mean=3.7%)	apoptotic BxPC-3 cells, difference versus control (BxPC-3 cells; gemcitabine 10 μM) [%]
O=C(O)c1cc(=O)c2c(OCC(O)COc3cccc4oc(C(=O)O)cc(=O)c34)cccc2o1 [cromolyn, disodium 1,3-bis[(2′-carboxylatochromon-5′-yl)oxy]-2-hydroxypropane]	3.9×10^8 photons/sec	1.2×10^9 photons/sec	1.6×10^8 photons/sec	4.4×10^8 photons/sec	no effect on body weight	did not influence	nor did it inhibit growth stimulation caused by PDGF	0.56	0.37	completely blocked	no effect	no statistically significant effect						
Nc1ccn([C@@H]2O[C@H](CO)[C@@H](O)C2(F)F)c(=O)n1 [gemcitabine]		6.8×10^8 photons/sec	3.9×10^8 photons/sec	9.2×10^8 photons/sec									did not reduce metastasis	did not reduce metastasis	3.9	27.2	31.0% and 30.8%	27.3
